Series [1] can be described thus: Estimated free plasma Cmax in patients treated at 600 mg QD. It is filed as in vivo, human. The note with it: unbound fraction of 1% used.
The next series deals with P-gp (Homo sapiens, UniProt P08183). The experiment in a line: In vitro P-gp substrate assay (Caco-2 and MDCKII-MDR1 cells). The class given is in vitro ADME. The arrangement: expressed in transfected cells; host or cells: MDCKII-MDR1 cells; also Caco-2 cells.
Sequence of P-gp (P08183 whole entry): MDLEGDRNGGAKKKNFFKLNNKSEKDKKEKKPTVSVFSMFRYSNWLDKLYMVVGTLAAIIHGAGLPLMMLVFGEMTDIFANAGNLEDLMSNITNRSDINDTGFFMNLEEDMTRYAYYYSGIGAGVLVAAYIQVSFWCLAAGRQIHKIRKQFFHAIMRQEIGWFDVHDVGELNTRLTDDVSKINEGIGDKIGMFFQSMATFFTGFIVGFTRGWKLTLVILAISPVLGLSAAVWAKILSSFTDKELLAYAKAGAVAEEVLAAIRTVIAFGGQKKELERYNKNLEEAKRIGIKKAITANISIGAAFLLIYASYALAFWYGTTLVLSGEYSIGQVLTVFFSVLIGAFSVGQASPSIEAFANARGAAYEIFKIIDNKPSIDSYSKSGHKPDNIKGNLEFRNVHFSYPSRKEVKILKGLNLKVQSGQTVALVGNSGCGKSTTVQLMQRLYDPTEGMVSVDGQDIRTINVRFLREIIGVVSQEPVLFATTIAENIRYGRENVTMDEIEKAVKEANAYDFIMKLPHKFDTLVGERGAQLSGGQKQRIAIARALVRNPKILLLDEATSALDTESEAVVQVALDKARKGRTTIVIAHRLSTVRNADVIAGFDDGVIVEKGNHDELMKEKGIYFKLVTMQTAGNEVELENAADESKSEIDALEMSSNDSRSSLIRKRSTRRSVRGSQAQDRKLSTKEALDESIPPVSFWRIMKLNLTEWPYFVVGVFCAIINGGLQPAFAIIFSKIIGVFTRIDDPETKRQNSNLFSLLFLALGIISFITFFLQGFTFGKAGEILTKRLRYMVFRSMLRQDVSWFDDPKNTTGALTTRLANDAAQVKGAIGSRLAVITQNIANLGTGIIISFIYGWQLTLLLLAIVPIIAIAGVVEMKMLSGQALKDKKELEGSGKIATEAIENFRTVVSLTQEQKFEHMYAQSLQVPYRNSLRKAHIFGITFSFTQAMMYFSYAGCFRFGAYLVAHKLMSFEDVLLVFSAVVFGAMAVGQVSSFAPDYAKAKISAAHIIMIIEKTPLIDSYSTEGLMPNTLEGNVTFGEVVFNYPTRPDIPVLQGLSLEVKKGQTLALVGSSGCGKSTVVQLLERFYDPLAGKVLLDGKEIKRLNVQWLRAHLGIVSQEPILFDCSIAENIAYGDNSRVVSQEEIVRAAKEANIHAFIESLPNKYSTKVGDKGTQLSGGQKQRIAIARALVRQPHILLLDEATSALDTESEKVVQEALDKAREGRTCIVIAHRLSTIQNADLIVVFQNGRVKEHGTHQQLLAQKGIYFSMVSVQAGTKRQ

For `O=C(Nc1n[nH]c2ccc(Cc3cc(F)cc(F)c3)cc12)c1ccc(N2CCNCC2)cc1NC1CCOCC1` [M5], the “estimated free Cmax in plasma” value in series [1] is 13.4 nM. The P-gp substrate status entry at P-gp is reported as “substrate”.

The values above are taken from article PMC8763936 (Investigational New Drugs, 2021).
